Assay results taken from ChEMBL document CHEMBL1156960, “First synthesis of separable isomeric testosterone dimers showing differential activities on prostate cancer cells” (Bioorg Med Chem Lett, 2010).
pIC50: −log10 of the molar value.

Experiments:
PC-3 = assay: Cytotoxicity against human androgen receptor negative PC3 cells after 72 hrs by MTT assay; assay type: functional, cell-based; conditions: PC-3, 72 h
LNCaP = assay: Cytotoxicity against human androgen receptor positive LNCAP cells after 72 hrs by MTT assay; assay type: functional, cell-based

SMILES | pIC50 (PC-3) | pIC50 (LNCaP)
C[C@]12CC[C@H]3[C@@H]([C@@H](C/C=C/C[C@H]4CC5=CC(=O)CC[C@]5(C)[C@H]5CC[C@]6(C)[C@@H](O)CC[C@H]6[C@H]45)CC4=CC(=O)CC[C@@]43C)[C@@H]1CC[C@@H]2O | 4.45 | –
CC(=O)O[C@]1(C(C)=O)CC[C@H]2[C@@H]3C=C(Cl)C4=CC(=O)[C@@H]5C[C@@H]5[C@]4(C)[C@H]3CC[C@@]21C [CYPROTERONE ACETATE] | 4.49 | 4.37
C[C@]12CC[C@H]3[C@@H]([C@@H](C/C=C\C[C@H]4CC5=CC(=O)CC[C@]5(C)[C@H]5CC[C@]6(C)[C@@H](O)CC[C@H]6[C@H]45)CC4=CC(=O)CC[C@@]43C)[C@@H]1CC[C@@H]2O | 4.61 | 4.52
